{"source": "paper PMC9503112", "about": "“Synthesis, Molecular Docking, In Vitro and In Vivo Studies of Novel Dimorpholinoquinazoline-Based Potential Inhibitors of PI3K/Akt/mTOR Pathway” (International Journal of Molecular Sciences, 2022)", "key": {"[1]": {"biological_target": "T1, recombinant PI3K (p110α/p85α) (Homo sapiens, UniProt P42336)", "T1 construct": "purchased Millipore 14-602", "T1 sequence (P42336 whole entry)": "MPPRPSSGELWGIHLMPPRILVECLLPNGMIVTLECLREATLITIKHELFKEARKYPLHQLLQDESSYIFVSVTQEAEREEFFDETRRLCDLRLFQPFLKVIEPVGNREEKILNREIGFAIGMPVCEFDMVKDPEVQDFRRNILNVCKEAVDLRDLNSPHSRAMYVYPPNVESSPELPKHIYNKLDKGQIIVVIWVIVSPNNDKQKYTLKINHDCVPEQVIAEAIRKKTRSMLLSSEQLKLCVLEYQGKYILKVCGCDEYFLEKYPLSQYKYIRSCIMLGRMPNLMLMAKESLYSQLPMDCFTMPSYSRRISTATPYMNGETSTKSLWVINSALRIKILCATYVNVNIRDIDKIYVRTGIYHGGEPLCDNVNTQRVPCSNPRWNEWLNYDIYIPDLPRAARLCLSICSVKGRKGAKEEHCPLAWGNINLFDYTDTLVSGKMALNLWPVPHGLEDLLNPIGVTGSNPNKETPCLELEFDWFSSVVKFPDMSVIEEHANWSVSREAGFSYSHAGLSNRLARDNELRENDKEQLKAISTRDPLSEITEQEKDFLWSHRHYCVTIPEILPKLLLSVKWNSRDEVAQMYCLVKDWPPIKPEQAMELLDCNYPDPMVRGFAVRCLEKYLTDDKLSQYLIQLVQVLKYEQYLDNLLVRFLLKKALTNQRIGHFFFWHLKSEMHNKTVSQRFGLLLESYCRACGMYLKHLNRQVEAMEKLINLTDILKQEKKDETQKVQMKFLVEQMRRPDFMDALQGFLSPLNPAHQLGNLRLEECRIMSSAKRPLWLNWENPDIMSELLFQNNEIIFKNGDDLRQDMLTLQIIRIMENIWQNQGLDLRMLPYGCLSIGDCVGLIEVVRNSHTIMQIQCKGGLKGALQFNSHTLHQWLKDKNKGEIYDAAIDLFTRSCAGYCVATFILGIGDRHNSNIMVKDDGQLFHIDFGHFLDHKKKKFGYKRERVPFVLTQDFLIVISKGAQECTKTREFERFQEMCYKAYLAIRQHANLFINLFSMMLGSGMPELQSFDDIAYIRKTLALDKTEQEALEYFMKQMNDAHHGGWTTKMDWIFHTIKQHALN", "T1 sequence (P27986 whole entry partner)": "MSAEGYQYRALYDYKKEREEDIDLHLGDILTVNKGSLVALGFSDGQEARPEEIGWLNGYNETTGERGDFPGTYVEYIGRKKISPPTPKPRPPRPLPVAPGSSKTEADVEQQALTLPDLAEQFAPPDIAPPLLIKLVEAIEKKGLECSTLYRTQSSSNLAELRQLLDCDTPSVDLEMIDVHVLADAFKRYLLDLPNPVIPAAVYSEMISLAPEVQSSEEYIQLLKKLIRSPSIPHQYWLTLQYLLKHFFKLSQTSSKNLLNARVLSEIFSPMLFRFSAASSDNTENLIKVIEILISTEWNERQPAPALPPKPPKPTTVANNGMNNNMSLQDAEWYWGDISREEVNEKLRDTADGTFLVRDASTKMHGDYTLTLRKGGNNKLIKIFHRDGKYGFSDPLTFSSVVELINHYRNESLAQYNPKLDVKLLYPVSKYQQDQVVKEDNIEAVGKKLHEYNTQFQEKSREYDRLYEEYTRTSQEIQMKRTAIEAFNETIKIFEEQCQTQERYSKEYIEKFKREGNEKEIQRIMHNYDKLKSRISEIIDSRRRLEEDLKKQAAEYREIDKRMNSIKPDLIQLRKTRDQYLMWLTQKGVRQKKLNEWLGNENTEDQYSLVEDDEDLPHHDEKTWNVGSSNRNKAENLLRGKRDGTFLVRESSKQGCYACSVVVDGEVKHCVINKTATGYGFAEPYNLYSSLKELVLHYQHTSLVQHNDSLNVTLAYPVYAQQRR", "test": "PI3K inhibition assay (HTRF)", "assay_type": "biochemical", "conditions": "FRET/HTRF detection; approximate; read-out: IC50 PI3Kα", "experimental": "The PI 3-Kinase (Class I) HTRF Assay Kit (Cat# 33-016 from Millipore) was used to determine the activity of recombinant PI3K (p110α/p85α) human (Cat# 14-602 from Millipore). The kit was supplemented with ATP (Cat# A26209 from Sigma-Aldrich, St. Louis, MI, USA), DL-dithiothreitol (Cat# S-[…]-1 from Sigma-Aldrich), and Wortmannin inhibitor (Cat# 12-338 from Millipore, Burlington, MA, USA). The latter was used at 0.1 μM concentration. For measurements, a Victor ×5 plate reader (PerkinElmer, 2030, Waltham, MA, USA) was used in TRF mode with excitation at 340 nm. Fluorescence emission was recorded at 613 and 670 nm in a 384-well plate (Cat# S-CLS3658 from Sigma-Aldrich) at a time interval of 150-350 μs. The enzymatic reaction and the determination of its products were carried out according to the recommendations of the reagent kit manufacturer (Millipore) in two wells for each sample. In calculations, readings in parallel wells were averaged. The calculations were made according to the recommendations of the equipment manufacturer."}, "PARP1 in MCF7 cells": {"system": "PARP1 in MCF7 cells", "test": "Immunoblotting of PARP1 cleavage", "assay_type": "cell-based, human", "experimental": "MCF7 cells were seeded onto 100 mm dishes (Corning) and cultivated for 24 h. Compound 7c was added at different concentrations while the reference compound wortmannin (Selleckchem, Houston, TX, USA) was used at 500 nM. The cells were harvested after 72 h of growth with the compounds. To prepare cell extracts, MCF7 cells were twice washed in phosphate buffer and incubated for 10 min on ice in the modified lysis buffer containing 50 mM Tris-HCl, pH 7.5, 0.5% Igepal CA-630, 150 mM NaCl, 1 mM EDTA, 1 mM DTT, 1 mM PMSF, 0.1 mM sodium orthovanadate and aprotinin, leupeptin, pepstatin (1 µg/mL each). The protein content was determined by the Bradford method. Cell lysates were separated in 10% SDS-PAGE under reducing conditions, transferred to a nitrocellulose membrane (GE HealthCare, Chicago, IL, USA), and processed according to a standard protocol. To prevent nonspecific absorption, the membranes were treated with 5% nonfat milk solution in TBS buffer (20 mM Tris, 500 mM NaCl, pH 7.5) with 0.1% Tween-20 and then incubated with primary antibodies (Cell Signaling Technology, Danvers, MA, USA) overnight at 4 °C. […] Signals were detected using the ECL reagent using the ImageQuant LAS4000 system (GE HealthCare, Chicago, IL, USA).\nThe signals of phospho-proteins to total ones were calculated using the ImageJ program from inverted images of the bands."}, "[2]": {"system": "colorectal murine tumor Colon26", "test": "In vivo tumor growth", "parameters": "species or system BALB/c mice", "experimental": "Murine colorectal CT26 (ATCC, CRL-2639) adenocarcinoma tumor cell line was used in the study. Cells were grown in RPMI-1640 supplemented with 10% fetal calf serum (FCS) and pen-strep-glut (all from PanEco, Moscow, Russian Federation). Cells were passaged by trypsinization using Trypsin/EDTA solution (PanEco, Moscow, Russian Federation) twice a week. Cell authentication was not performed by the authors.\nSix- to eight-week-old female BALB/c mice were obtained from the Pushchino branch of Shemyakin-Ovchinnikov Institute of Bioorganic Chemistry RAS. All studies were conducted in an AAALAC accredited facility in compliance with the PHS Guidelines for the Care and Use of Animals in Research, protocol #325 from 24.05.2021\nColon-26 cells (10^5) were subcutaneously (s.c.) injected into the depilated flanks of 6-week-old female BALB/c mice. Mice (n = 20) were divided in three groups: control mice (n = 8) were injected with vehicle only; mice from group 1 (n = 6) and 2 (n = 6) were treated with 50 µL of 1 mM 7c injected s.c. near the tumors. […] The perpendicular diameter of each tumor was measured twice a week, and tumor volume was calculated using the following formula: tumor volume (mm^3) = a × b^2 × 0.5, where a represents the longest diameter, b represents the shortest diameter, and 0.5 is a constant used to calculate the volume of an ellipsoid. […]"}}, "note": "pIC50: −log10 of the molar value. Entries after “also recorded” stand apart in the source; their conditions may differ."}
{"compound": "O=C(NCCc1cccnc1)Nc1ccc(-c2ccc3c(N4CCOCC4)nc(N4CCOCC4)nc3c2)cc1", "note": "[Compound 7c, 1-(4-(2,4-Dimorpholinoquinazolin-7-yl)phenyl)-3-(2-(pyridin-3-yl)ethyl)urea]", "values": [{"measurement": "pIC50", "setting": "[1]", "result": "~3.30"}, {"measurement": "Concentration triggering PARP-1 cleavage", "setting": "PARP1 in MCF7 cells", "result": "62 to 125", "unit": "nM"}, {"measurement": "Effect on tumor growth, late treatment of large tumors (group 2)", "setting": "[2]; 50 µL of 1 mM 7c s.c. around tumor, from 400–500 mm^3, three injections", "result": "less evident but still significant; also recorded: tumor destruction"}, {"measurement": "Effect on tumor growth, early treatment (group 1)", "setting": "[2]; 50 µL of 1 mM 7c s.c. near tumor, once in 3 days, from 2–8 mm^3, post three injections, p < 0.05", "result": "significant"}]}
